Test results taken from ChEMBL document CHEMBL1697692, “Developing structure-activity relationships for the prediction of hepatotoxicity” (Chem Res Toxicol, 2010).

test system: Hepatotoxicity; experiment: Literature-mined public compounds from Greene et al multi-species hepatotoxicity modelling dataset

Structure (SMILES)	Hepatotoxicity
C[C@H](C(=O)O)c1ccc2oc(-c3ccc(F)cc3)nc2c1 [FLUNOXAPROFEN]	WE: Weak evidence (<10 case reports) of human hepatotoxicity
O=c1[nH]cc(F)c(=O)[nH]1 [FLUOROURACIL]	HH: Evidence of human hepatotoxicity
CC(C(=O)O)c1ccc(-c2ccccc2)c(F)c1 (stereo not drawn) [FLURBIPROFEN]	HH: Evidence of human hepatotoxicity
CC(C)C(=O)Nc1ccc([N+](=O)[O-])c(C(F)(F)F)c1 [FLUTAMIDE]	HH: Evidence of human hepatotoxicity
COCCCC/C(=N\OCCN)c1ccc(C(F)(F)F)cc1 [FLUVOXAMINE]	HH: Evidence of human hepatotoxicity
Nc1nc2ncc(CNc3ccc(C(=O)N[C@@H](CCC(=O)O)C(=O)O)cc3)nc2c(=O)[nH]1 [FOLIC ACID]	NE: No evidence of hepatotoxicity in any species
O=C(O)P(=O)(O)O [FOSCARNET]	NE: No evidence of hepatotoxicity in any species
O=C1OCCN1/N=C/c1ccc([N+](=O)[O-])o1 [FURAZOLIDONE]	HH: Evidence of human hepatotoxicity
NCC1(CC(=O)O)CCCCC1 [GABAPENTIN]	NE: No evidence of hepatotoxicity in any species
CC[N+](CC)(CC)CCOc1cccc(OCC[N+](CC)(CC)CC)c1OCC[N+](CC)(CC)CC.[I-].[I-].[I-] [GALLAMINE TRIETHIODIDE]	NE: No evidence of hepatotoxicity in any species
COc1c(N2CCNC(C)C2)c(F)cc2c(=O)c(C(=O)O)cn(C3CC3)c12 (stereo not drawn) [GATIFLOXACIN]	WE: Weak evidence (<10 case reports) of human hepatotoxicity
Cc1ccc(C)c(OCCCC(C)(C)C(=O)O)c1 [GEMFIBROZIL]	HH: Evidence of human hepatotoxicity
O=C(OCC(O)CO)c1ccccc1Nc1ccnc2cc(Cl)ccc12 (stereo not drawn) [GLAFENINE]	HH: Evidence of human hepatotoxicity
Cc1ccc(S(=O)(=O)NC(=O)NN2CC3CCCC3C2)cc1 (stereo not drawn) [GLICLAZIDE]	WE: Weak evidence (<10 case reports) of human hepatotoxicity
CCC1=C(C)CN(C(=O)NCCc2ccc(S(=O)(=O)NC(=O)N[C@H]3CC[C@H](C)CC3)cc2)C1=O [GLIMEPIRIDE]	WE: Weak evidence (<10 case reports) of human hepatotoxicity
N[C@H]1C(O)O[C@H](CO)[C@@H](O)[C@@H]1O (stereo partly drawn) [GLUCOSAMINE]	AH: Evidence for animal hepatotoxicity but not tested in humans
CCC1(c2ccccc2)CCC(=O)NC1=O (stereo not drawn) [GLUTETHIMIDE]	HH: Evidence of human hepatotoxicity
Cc1c(F)c(N2CCNC(C)C2)cc2c1c(=O)c(C(=O)O)cn2C1CC1 (stereo not drawn) [GREPAFLOXACIN]	HH: Evidence of human hepatotoxicity
COC1=CC(=O)C[C@@H](C)[C@]12Oc1c(Cl)c(OC)cc(OC)c1C2=O [GRISEOFULVIN]	HH: Evidence of human hepatotoxicity
N=C(N)NCCN1CCCCCCC1.N=C(N)NCCN1CCCCCCC1.O=S(=O)(O)O [GUANETHIDINE SULFATE]	HH: Evidence of human hepatotoxicity
ClC(Cl)=C(Cl)C(Cl)=C(Cl)Cl [HEXACHLOROBUTADIENE]	AH: Evidence for animal hepatotoxicity but not tested in humans
Oc1c(Cl)cc(Cl)c(Cl)c1Cc1c(O)c(Cl)cc(Cl)c1Cl [HEXACHLOROPHENE]	HH: Evidence of human hepatotoxicity
CCN(CC)CCNc1ccc(CO)c2sc3ccccc3c(=O)c12 [HYCANTHONE]	HH: Evidence of human hepatotoxicity
NN [HYDRAZINE]	AH: Evidence for animal hepatotoxicity but not tested in humans
NS(=O)(=O)c1cc2c(cc1Cl)NCNS2(=O)=O [HYDROCHLOROTHIAZIDE]	HH: Evidence of human hepatotoxicity
NC(=O)NO [HYDROXYUREA]	HH: Evidence of human hepatotoxicity
CC(C)Cc1ccc(CC(=O)O)cc1 [IBUFENAC]	HH: Evidence of human hepatotoxicity
CC(C)Cc1ccc(C(C)C(=O)O)cc1 (stereo not drawn) [IBUPROFEN]	WE: Weak evidence (<10 case reports) of human hepatotoxicity
